Here are results for three molecules from US20210254014A1, “GROWTH INHIBITOR” (Kyoto University, priority 2018, published 2021).

Test [1] has as its system Ki67-positive cells. In words: Ki67-positive cells by flow cytometry in the insulin-producing cell population obtained by treating an endocrine progenitor cell population for 12 days (Example 1). Format: cell-based, human. The following applies: 1 μM, mean ± standard deviation of five experiments, absent control 10.78 ± 4.09%. The procedure:
The induction of differentiation of the endocrine progenitor cell population into an insulin-producing cell population was carried out according to the above step 6) or the previous report (Nature Biotechnology 2014; 32: 1121-1133).
The endocrine progenitor cell population obtained by the induction of differentiation from iPS cells were cultured for 12 days in a medium for induction of differentiation (Improved MEM/1% B27/Penicillin Streptomycin) containing differentiation factors (ALK5 inhibitor II, T3, LDN, γ-secretase inhibitor RO, and ascorbic acid) and an FGF receptor 1 inhibitor (CAS192705-79-6) to obtain an insulin-producing cell population. The number of Ki67-positive cells in the obtained cell population was evaluated by flow cytometry.
On the technique in general: In flow cytometry, cells or beads pass a laser one at a time.

Test [2] relates to immunodeficient NOD/SCID mice having streptozotocin-induced insulin-deficient diabetes mellitus. In words: Transplantation of the FGF receptor 1 inhibitor-treated insulin-producing cell population beneath the kidney capsule; human C-peptide in blood and blood glucose. Format: in vivo. The following applies: cell population treated with 1 μM for 12 days. The procedure:
In the description below, the preparation of mice and the transplantation of cells were performed in accordance with known methods.
The insulin-producing cell population obtained by culture in the medium for induction of differentiation containing CAS192705-79-6 in the preceding section (1) or an insulin-producing cell population obtained by culture in a medium for induction of differentiation free from CAS192705-79-6 as a comparative example was transplanted beneath the capsule of the kidney using immunodeficient NOD/SCID mice having streptozotocin-induced insulin-deficient diabetes mellitus. For follow-up after the transplantation, human C-peptide concentrations in blood and blood glucose levels were measured. […]

For the next test, the system named is grafts. In words: Autopsy findings and immunohistological staining of grafts excised 5 weeks after transplantation. To be noted: cell population treated with 1 μM for 12 days, compared with untreated cell population. Format: in vivo, mice. An excerpt: The insulin-producing cell population obtained by culture in the medium for induction of differentiation containing CAS192705-79-6 in the preceding section (1) or an insulin-producing cell population obtained by culture in a medium for induction of differentiation free from CAS192705-79-6 as a comparative example was transplanted beneath the capsule of the kidney using immunodeficient NOD/SCID mice having streptozotocin-induced insulin-deficient diabetes mellitus. For follow-up after the transplantation, human C-peptide concentrations in blood and blood glucose levels were measured. The grafts were excised 5 weeks after the transplantation.
The excised grafts were fixed and dehydrated, and then, frozen sections were prepared and subjected to immunohistological staining in order to evaluate unintended cells. The cells of interest that could be expected to maturate into pancreatic islet cells in vivo were evaluated using insulin positivity (and NKX6.1 positivity) or glucagon positivity as an indicator, and unintended cells having the possibility of adversely affecting long-term graft survival of the cells of interest were evaluated using Ki67 positivity as an indicator.

Test [3] deals with Ki67-positive cells. Description: Ki67-positive cells by flow cytometry, timing of treatment during insulin-producing cell production (Example 2). The following applies: 1 μM, mean ± SD of three experiments, absent control 7.57 ± 1.05%. Format: cell-based. The procedure: (§1) 1) An endocrine progenitor cell population obtained by the induction of differentiation from iPS cells were cultured for 11 days in a medium for induction of differentiation (Improved MEM/1% B27/Penicillin Streptomycin) containing differentiation factors (ALK5 inhibitor II, T3, LDN, γ-secretase inhibitor RO, and ascorbic acid) and an FGF receptor 1 inhibitor (CAS192705-79-6) to obtain an insulin-producing cell population.
(§2) 2) An endocrine progenitor cell population obtained by the induction of differentiation from iPS cells were cultured for 4 days in a medium for induction of differentiation (Improved MEM/1% B27/Penicillin Streptomycin) containing differentiation factors (ALK5 inhibitor II, T3, LDN, γ-secretase inhibitor RO, and ascorbic acid) and thereby induced to differentiate into an insulin-producing cell population. Subsequently, an FGF receptor 1 inhibitor (CAS192705-79-6, 1 μM) was added to a medium for induction of differentiation (Improved MEM/1% B27/Penicillin Streptomycin) containing differentiation factors (ALK5 inhibitor II, T3, LDN, γ-secretase inhibitor RO, and ascorbic acid), and the cells were cultured therein for 7 days.
as §2, with “3) An” for “2) An”, “for 7” for “for 4”, “for 4” for “for 7”, “days. […]” for “days.”
The number of Ki67-positive cells in the cell population obtained by each of the above methods 1), 2), and 3) was counted by flow cytometry to determine the proportion of Ki67-positive cells in each cell population.

The test system of test [4] is insulin-positive (and NKX6.1-positive) cells. Description: Insulin-positive (and NKX6.1-positive) cells by flow cytometry, timing of treatment (Example 2). Format: cell-based. The following applies: 1 μM, relative value, untreated control defined as 100%. Here is the method: as §1, §2
3) An endocrine progenitor cell population obtained by the induction of differentiation from iPS cells were cultured for 7 days in a medium for induction of differentiation (Improved MEM/1% B27/Penicillin Streptomycin) containing differentiation factors (ALK5 inhibitor II, T3, LDN, γ-secretase inhibitor RO, and ascorbic acid) and thereby induced to differentiate into an insulin-producing cell population. […]
The number of insulin-positive (and NKX6.1-positive) cells in the cell population obtained by each of the above methods 1), 2), and 3) was counted by flow cytometry. The proportion of insulin-positive (and NKX6.1-positive) cells in each method was calculated as a relative value when the number of insulin-positive (and NKX6.1-positive) cells in the control cell population obtained by the above method 4) was defined as 100%.

Test [5] concerns Ki67-positive cells. In words: Ki67-positive cells by flow cytometry after 4 days of treatment with FGFR1 inhibitors at three concentrations (Example 3). Format: cell-based. The procedure:
The number of Ki67-positive cells in the obtained cell population was evaluated by flow cytometry.

Test [6] concerns endocrine progenitor cells derived from human iPS cells. To be noted: cited from earlier work.
Test [7] relates to rat myoblasts. The following applies: cited from earlier work.
For test [8], the system named is rat myoblasts. The following applies: cited from earlier work. The source holds these as a separate data set.
For test [9], the system named is human placental blood vessels. The following applies: cited from earlier work.
Where [10] appears, read: Table 4, 0.3 μM, absent control 4.13%.
Where [11] appears, read: Table 4, 1 μM, absent control 4.13%.

As for `COc1cc(OC)cc(-c2cc3cnc(N)nc3nc2NC(=O)NC(C)(C)C)c1` [CAS192705-79-6, 1-[2-amino-6-(3,5-dimethoxyphenyl)-pyrido(2,3-d)pyrimidin-7-yl]-3-tert-butylurea], the “Content percentage of Ki67-positive cells (before transplantation)” value in the test with Ki67-positive cells [1] is 0.98 ± 0.29%. For the same molecule, in [2] (transplanted beneath the kidney capsule, untreated cells 1440 ± 573), the “Human C-peptide concentration in blood 4 months after transplantation” value is 1486 ± 305 pM. Further, in [2] (4 months later, untreated cells 85 ± 16), the “Blood glucose level 4 months after transplantation” value was found to be 86 ± 22 mg/dL. Besides, the “Blood glucose level at time of transplantation” value in [2] (at time of transplantation (baseline)) was determined as 516 ± 33 mg/dL. For the same molecule, the “Bloatedness of the grafts” value in the test with grafts is on record as “drastic inhibition of bloatedness of the grafts”. Besides, the results for the “Proportion of Ki67-positive cells” value in the test with Ki67-positive cells [3] (for last 4 days), with Ki67-positive cells [3] (for last 7 days) and in the test with Ki67-positive cells [3] (from start (11 days)) were 0.57 ± 0.15%, 0.47 ± 0.15% and 0.57 ± 0.35%, respectively. Further, the “Proportion of insulin-positive (and NKX6.1-positive) cells” value in test [4] (for last 4 days) worked out at 91 ± 16%; in test [4] (for last 7 days) it was 88 ± 13%; in test [4] (from start (11 days)), 45 ± 15%. The “Proportion of Ki67-positive cells (%)” value in the test on Ki67-positive cells [5] (Table 4, 0.1 μM, absent control 4.13%) is 2.15%;; in the test on Ki67-positive cells [5] (setting [10]) it was 0.99%;; in the test on Ki67-positive cells [5] (setting [11]), 0.7%;. Besides, in [6], the “Differentiation of endocrine progenitor cells” value is “can be promoted”. The “Cell proliferation caused by bFGF stimulation” value in the test with rat myoblasts [7] is “inhibit cell proliferation caused by bFGF stimulation”. Besides, the “Cell proliferation caused by PDGE stimulation” value in the test on rat myoblasts [8] is given as “not inhibit cell proliferation caused by PDGE stimulation”. Further, the Elongation of microvessels entry in [9] is recorded as “inhibit the elongation of microvessels”.
As to `COCCCOc1ccnc(C[S+]([O-])c2nc3ccccc3[nH]2)c1C` (stereo not drawn) [E-3810], the “Proportion of Ki67-positive cells (%)” value is recorded as 2.74%; in the test on Ki67-positive cells [5] (setting [10]); 1.51%; in the test on Ki67-positive cells [5] (setting [11]); 0.67%; in the test on Ki67-positive cells [5] (Table 4, 10 μM, absent control 4.13%).
As for `CCN(CC)CCCCNc1ncc2cc(-c3cc(OC)cc(OC)c3)c(NC(=O)NC(C)(C)C)nc2n1` [PD-173074], the “Proportion of Ki67-positive cells (%)” value with Ki67-positive cells [5] (Table 5, 0.1 μM, absent control 2.7%) is 0.7%;; with Ki67-positive cells [5] (Table 5, 1 μM, absent control 2.7%), 0.7%;; with Ki67-positive cells [5] (Table 5, 5 μM, absent control 2.7%), 0.5%;.
